From patent US9518018B2, “3-alkoxy, thioalkyl and amino-4-amino-6-(substituted)picolinates and their use as herbicides” (Dow AgroSciences LLC, priority 2011, dated 2016)

Columns and labels:
[1] = test system: CHEAL: lambsquarters (Chenopodium album); experiment: Post-Emergent Test I herbicidal activity; type: in vivo; details: Chenopodium album, post-emergence, 336 h, read-out: Visual Growth Reduction (%)-14 Days after Application CHEAL; for pest or weed control at 140 g/ha: Table 3, 140 g ai/ha; for pest or weed control at 70 g/ha: Table 3, 70 g ai/ha; for pest or weed control at 280 g/ha: Table 3, 280 g ai/ha
Summary of the method: (§1)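 Visual injury ratings (0 = none, 100 = complete kill) taken 14 d after treatment underlie these values, with GR20, GR50 and GR80 obtained by probit analysis. Plants were treated post-emergence at the first or second true-leaf stage by overhead spray at 187 L/ha.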

[2] = test system: ECHCG: barnyardgrass (Echinochloa crus-galli); experiment: Post-Emergent Test I herbicidal activity; type: in vivo; details: post-emergence, 336 h, read-out: Visual Growth Reduction (%)-14 Days after Application ECHCG; for pest or weed control at 140 g/ha: Table 3, 140 g ai/ha; for pest or weed control at 70 g/ha: Table 3, 70 g ai/ha; for pest or weed control at 280 g/ha: Table 3, 280 g ai/ha
Summary of the method: (§2)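 Greenhouse-grown seedlings (peat-based mix, pH 6.0–6.8; ~15 h photoperiod, 23–29 °C day) were sprayed post-emergence at first/second true-leaf stage with compound in acetone/DMSO/aqueous crop-oil–surfactant carrier at 187 L/ha, using a twofold rate series. Injury was scored visually after 14 d (0–100%); GR20/GR50/GR80 derived by probit analysis.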

[3] = test system: EPHHL: wild poinsettia (Euphorbia heterophylla); experiment: Post-Emergent Test I herbicidal activity; type: in vivo; details: post-emergence, 336 h, read-out: Visual Growth Reduction (%)-14 Days after Application EPHHL; for pest or weed control at 140 g/ha: Table 3, 140 g ai/ha; for pest or weed control at 70 g/ha: Table 3, 70 g ai/ha; for pest or weed control at 280 g/ha: Table 3, 280 g ai/ha
Summary of the method: as §1

[4] = test system: ABUTH: velvetleaf (Abutilon theophrasti); experiment: Post-Emergent Test I herbicidal activity; type: in vivo; details: Abutilon theophrasti, post-emergence, 336 h, read-out: Visual Growth Reduction (%)-14 Days after Application ABUTH; for pest or weed control at 140 g/ha: Table 3, 140 g ai/ha; for pest or weed control at 70 g/ha: Table 3, 70 g ai/ha; for pest or weed control at 280 g/ha: Table 3, 280 g ai/ha
Summary of the method: as §1

[5] = test system: ZEAMX: corn (Zea mays); experiment: Post-Emergent Test I herbicidal activity; type: in vivo; details: Zea mays, post-emergence, 336 h, read-out: Visual Growth Reduction (%)-14 Days after Application ZEAMX; for pest or weed control at 140 g/ha: Table 3, 140 g ai/ha; for pest or weed control at 70 g/ha: Table 3, 70 g ai/ha; for pest or weed control at 280 g/ha: Table 3, 280 g ai/ha
Summary of the method: as §1

[6] = test system: CYPES: yellow nutsedge (Cyperus esculentus); experiment: Post-Emergent Test I herbicidal activity; type: in vivo; details: post-emergence, 336 h, read-out: Visual Growth Reduction (%)-14 Days after Application CYPES; for pest or weed control at 140 g/ha: Table 3, 140 g ai/ha; for pest or weed control at 70 g/ha: Table 3, 70 g ai/ha; for pest or weed control at 280 g/ha: Table 3, 280 g ai/ha
Summary of the method: as §1

[7] = test system: ORYSA: rice (Oryza sativa); experiment: Post-Emergent Test I herbicidal activity; type: in vivo; details: post-emergence, 336 h, read-out: Visual Growth Reduction (%)-14 Days after Application ORYSA; for pest or weed control at 140 g/ha: Table 3, 140 g ai/ha; for pest or weed control at 70 g/ha: Table 3, 70 g ai/ha; for pest or weed control at 280 g/ha: Table 3, 280 g ai/ha
Summary of the method: as §2

Row | Compound | melting point [°C] | pest or weed control at 140 g/ha [1] [%] | pest or weed control at 140 g/ha [2] [%] | pest or weed control at 140 g/ha [3] [%] | pest or weed control at 140 g/ha [4] [%] | pest or weed control at 140 g/ha [5] [%] | pest or weed control at 140 g/ha [6] [%] | pest or weed control at 140 g/ha [7] [%] | further results
1 | COc1c(C(=O)O)nc(-c2ccc(Cl)c(F)c2F)c(F)c1N [Compound 48] | 151 | 100 | 90 | 100 | 90 | 80 | 100 | 0 | 
2 | COc1c(C(=O)O)nc(-c2ccc(Cl)c(F)c2)c(F)c1N [Compound 49] | 137 | 100 | 100 | 100 | 100 | 90 | 100 | 25 | 
3 | COc1c(C(=O)O)nc(-c2ccc(C(F)(F)F)cc2)c(F)c1N [Compound 50] | 135 to 137 | 90 | 70 | 100 | 90 | 75 | 100 | 30 | 
4 | COc1c(C(=O)O)nc(-c2ccc3c(c2)OCO3)c(F)c1N [Compound 53] | 223 to 225 | 100 | 80 | 0 | 80 | 75 | 100 | 15 | 
5 | COc1c(C(=O)O)nc(-c2ccc(C(F)(F)F)c(F)c2F)c(F)c1N [Compound 56] | 133 to 135 | 90 | 100 | 100 | 80 | 75 | 50 | 10 | 
6 | COc1c(C(=O)O)nc(-c2cc(F)c(Cl)cc2F)c(F)c1N [Compound 57] | 153.5 to 155 |  |  |  |  |  |  |  | pest or weed control at 70 g/ha [1]: 100%; pest or weed control at 70 g/ha [2]: 90%; pest or weed control at 70 g/ha [3]: 100%; pest or weed control at 70 g/ha [4]: 85%; pest or weed control at 70 g/ha [5]: 75%; pest or weed control at 70 g/ha [6]: 70%; pest or weed control at 70 g/ha [7]: 0%
7 | CCc1nc(C(=O)O)c(OC)c(N)c1F [Compound 58] | 148.5 to 150.5 |  |  |  |  |  |  |  | pest or weed control at 280 g/ha [1]: 80%; pest or weed control at 280 g/ha [2]: 0%; pest or weed control at 280 g/ha [3]: 65%; pest or weed control at 280 g/ha [4]: 60%; pest or weed control at 280 g/ha [5]: 10%; pest or weed control at 280 g/ha [6]: 0%; pest or weed control at 280 g/ha [7]: 0%
8 | COc1c(C(=O)O)nc(-c2cc(F)c(Br)cc2F)c(F)c1N [Compound 59] | 147 to 148 |  |  |  |  |  |  |  | pest or weed control at 70 g/ha [1]: 100%; pest or weed control at 70 g/ha [2]: 100%; pest or weed control at 70 g/ha [3]: 100%; pest or weed control at 70 g/ha [4]: 80%; pest or weed control at 70 g/ha [5]: 70%; pest or weed control at 70 g/ha [6]: 50%; pest or weed control at 70 g/ha [7]: 5%
9 | COc1c(C(=O)O)nc(-c2cc(F)c(I)cc2F)c(F)c1N [Compound 60] | 132 to 134 |  |  |  |  |  |  |  | pest or weed control at 70 g/ha [1]: 90%; pest or weed control at 70 g/ha [2]: 95%; pest or weed control at 70 g/ha [3]: 100%; pest or weed control at 70 g/ha [4]: 60%; pest or weed control at 70 g/ha [5]: 75%; pest or weed control at 70 g/ha [6]: 50%; pest or weed control at 70 g/ha [7]: 15%
10 | COc1c(C(=O)O)nc(-c2ccc(I)cc2F)c(F)c1N [Compound 62] | 143 to 145 | 100 | 100 | 100 | 15 | 75 | 50 | 8 | 
11 | COc1c(C(=O)O)nc(-c2ccc(C(F)(F)F)nc2)c(F)c1N [Compound 63] | 160 to 162 | 100 | 95 | 100 | 90 | 80 | 100 | 50 | 
12 | COc1c(Cl)ccc(-c2cc(N)c(OC(F)F)c(C(=O)O)n2)c1F [Compound 64] | 169 to 171 |  |  |  |  |  |  |  | pest or weed control at 280 g/ha [1]: 85%; pest or weed control at 280 g/ha [2]: 0%; pest or weed control at 280 g/ha [3]: 95%; pest or weed control at 280 g/ha [4]: 50%; pest or weed control at 280 g/ha [5]: 10%; pest or weed control at 280 g/ha [6]: 0%; pest or weed control at 280 g/ha [7]: 0%
13 | CCOC(=O)c1nc(-c2ccc(Cl)cc2F)cc(N)c1OCC(F)(F)F [Compound 67, ethyl 4-amino-6-(4-chloro-2-fluorophenyl)-3-(2,2,2-trifluoro-ethoxy)picolinate] | 123 to 125 |  |  |  |  |  |  |  | pest or weed control at 280 g/ha [1]: 50%; pest or weed control at 280 g/ha [2]: 0%; pest or weed control at 280 g/ha [3]: 35%; pest or weed control at 280 g/ha [4]: 25%; pest or weed control at 280 g/ha [5]: 0%; pest or weed control at 280 g/ha [6]: 0%; pest or weed control at 280 g/ha [7]: 0%
14 | CSc1c(C(=O)O)nc(-c2ccc(Cl)c(F)c2)c(F)c1N [Compound 72] | 168 to 170 | 100 | 0 | 100 | 80 | 60 | 90 | 30 | 
15 | CSc1c(C(=O)O)nc(Cl)c(F)c1N [Compound 73] | 176 to 178 | 10 | 0 | 50 | 10 | 0 | 0 | 0 | 
16 | COC(=O)c1nc(Cl)c(F)c(N)c1SC [Compound 74, Methyl 4-amino-6-chloro-5-fluoro-3-(methylthio)picolinate] | 75 to 77 | 0 | 0 | 0 | 0 | 0 | 0 | 0 | 
17 | COC(=O)c1nc(-c2ccc(Cl)cc2)cc(N(C)C)c1N [Compound 87, Methyl 3-amino-6-(4-chlorophenyl)-4-(dimethylamino)picolinate] | 153 to 154 | 90 | 40 | 100 | 90 | 0 | 90 | 0 | 
18 | CCOC(=O)c1nc(-c2ccc(Cl)c(OC)c2F)cc(N)c1SC [Compound 88, Ethyl 4-amino-6-(4-chloro-2-fluoro-3-methoxyphenyl)-3-(methylthio)picolinate] | 93 to 94 | 100 | 100 | 100 | 100 | 80 | 60 | 0 | 
